Laboratory results from patent publication US4508663A, “Process for preparing thiosulfenamide derivatives of N-phosphonomethylglycinonitriles” (Monsanto Company, priority 1983, dated 1985).

Legend:
Experiment in all cases: post-emergence herbicidal activity, greenhouse
Type in all cases: in vivo
[1] = test system: Barnyardgrass; conditions: Table I, 4 WAT
Text: (§1) A good grade of top soil is placed in aluminum pans having holes in the bottom and compacted to a depth of 0.95 to 1.27 cm. from the top of the pan. A predetermined number of seeds of each of several dicotyledonous and monocotyledonous annual plant species and/or vegetative propagules for the perennial plant species are placed on the soil and pressed into the soil surface. The seeds and/or vegetative propagules are covered with soil and leveled. The pans are then placed on a sand bench in the greenhouse and watered from below as needed. After the plants reach the desired age (two to three weeks), each pan except for the control pans is removed individually to a spraying chamber and sprayed by means of an atomizer operating at a positive air pressure of approximately 1.46 kg/cm^2 absolute. The atomizer contains 6 ml. of a solution or suspension of the chemical. In that 6 ml., is an amount of a cyclohexanone emulsifying agent mixture to give a spray solution or suspension which contains about 0.4% by weight of the emulsifier. The spray solution or suspension contains a sufficient amount of the candidate chemical in order to give application rates corresponding to those set forth in the tables. The spray solution is prepared by taking an aliquot of a 1.0% by weight stock solution or suspension of the candidate chemical in an organic solvent such as acetone or tetrahydrofuran or in water. The emulsifying agent employed is a mixture comprising 35 weight percent butylamine dodecylbenzene sulfonate and 65 weight percent of a tall oil ethylene oxide condensate having about 11 moles of ethylene oxide per mole of tall oil. The pans are returned to the greenhouse and watered as before and the injury to the plants as compared to the control is observed at approximately two and four weeks as indicated in the tables under WAT and the results recorded. In some instances, the two-week observations are omitted.
(§2) The post-emergence herbicidal activity index used in Table I is as follows: […]

[2] = test system: Canada Thistle; conditions: Table I, 4 WAT
Text: as §1, §2

[3] = test system: Cocklebur; conditions: Table I, 4 WAT
Text: as §1, §2

[4] = test system: Downy Brome; conditions: Table I, 4 WAT
Text: as §1, §2

[5] = test system: Johnsongrass; conditions: Table I, 4 WAT
Text: as §1, §2

[6] = test system: Lambsquarters; conditions: Table I, 4 WAT
Text: as §1, §2

[7] = test system: Morningglory; conditions: Table I, 4 WAT
Text: as §1, §2

[8] = test system: Quackgrass; conditions: Table I, 4 WAT
Text: as §1, §2

[9] = test system: Smartweed; conditions: Table I, 4 WAT, 11.2 kg/h
Text: as §1, §2

[10] = test system: Velvetleaf; conditions: Table I, 4 WAT
Text: as §1, §2

[11] = test system: Yellow Nutsedge; conditions: Table I, 4 WAT
Text: as §1, §2

## COc1ccc(SSN(CC#N)CP(=O)(Oc2ccccc2)Oc2ccccc2)cc1 [III, Phosphonic acid, [[(cyanomethyl)[(4-methoxyphenyl)-dithio]amino]methyl]-, diphenyl ester]
[1]; 5.6 kg/h
  post-emergence herbicidal activity index: 2 (50-74% control)
[1]; 11.2 kg/h
  post-emergence herbicidal activity index: 2 (50-74% control)
[2]; 5.6 kg/h
  post-emergence herbicidal activity index: 2 (50-74% control)
[2]; 11.2 kg/h
  post-emergence herbicidal activity index: 2 (50-74% control)
[3]; 5.6 kg/h
  post-emergence herbicidal activity index: 1 (25-49% control)
[3]; 11.2 kg/h
  post-emergence herbicidal activity index: 2 (50-74% control)
[4]; 5.6 kg/h
  post-emergence herbicidal activity index: 0 (0-24% control)
[4]; 11.2 kg/h
  post-emergence herbicidal activity index: 2 (50-74% control)
[5]; 5.6 kg/h
  post-emergence herbicidal activity index: 2 (50-74% control)
[5]; 11.2 kg/h
  post-emergence herbicidal activity index: 2 (50-74% control)
[6]; 5.6 kg/h
  post-emergence herbicidal activity index: 3 (75-99% control)
[6]; 11.2 kg/h
  post-emergence herbicidal activity index: 4 (100% control)
[7]; 5.6 kg/h
  post-emergence herbicidal activity index: 1 (25-49% control)
[7]; 11.2 kg/h
  post-emergence herbicidal activity index: 2 (50-74% control)
[8]; 5.6 kg/h
  post-emergence herbicidal activity index: 0 (0-24% control)
[8]; 11.2 kg/h
  post-emergence herbicidal activity index: 1 (25-49% control)
[9]
  post-emergence herbicidal activity index: 0 (0-24% control)
[10]; 5.6 kg/h
  post-emergence herbicidal activity index: 1 (25-49% control)
[10]; 11.2 kg/h
  post-emergence herbicidal activity index: 1 (25-49% control)
[11]; 5.6 kg/h
  post-emergence herbicidal activity index: 1 (25-49% control)
[11]; 11.2 kg/h
  post-emergence herbicidal activity index: 2 (50-74% control)
